Laboratory results: the supplement of paper PMC10733146

Key:
Assay in all cases: viability relative to DMSO control (fraction); higher = less drug effect (more viable cells)
Settings in all cases: 48 h
[1] = system: primary ALL patient cells (S048)
Procedure, shortened: (§1)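 Viability is given as CellTiter-Glo luminescence relative to the median of 16 inner DMSO wells. Fresh or cryopreserved primary mononuclear tumour cells from blood, bone marrow (both Ficoll-isolated) or processed lymph node were plated at 4 × 10^4 cells per well in 384-well plates against five pre-plated compound concentrations, one well each. Incubation lasted 48 h at 37 °C and 5% CO2 in RPMI-1640 with penicillin/streptomycin, L-glutamine and human serum.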

[2] = system: primary ALL patient cells (S088)
Procedure, shortened: as §1

[3] = system: primary AML patient cells (S006)
Procedure, shortened: as §1

[4] = system: primary AML patient cells (S011)
Procedure, shortened: as §1

[5] = system: primary AML patient cells (S012)
Procedure, shortened: as §1

[6] = system: primary AML patient cells (S017)
Procedure, shortened: as §1

[7] = system: primary AML patient cells (S021)
Procedure, shortened: as §1

[8] = system: primary AML patient cells (S056)
Procedure, shortened: as §1

[9] = system: primary AML patient cells (S060)
Procedure, shortened: as §1

[10] = system: primary AML patient cells (S081)
Procedure, shortened: as §1

[11] = system: primary AML patient cells (S085)
Procedure, shortened: as §1

[12] = system: primary B-PLL patient cells (S016)
Procedure, shortened: as §1

[13] = system: primary BL patient cells (S005)
Procedure, shortened: as §1

[14] = system: primary CLL patient cells (S031)
Procedure, shortened: as §1

[15] = system: primary CLL patient cells (S043)
Procedure, shortened: as §1

[16] = system: primary FL patient cells (S022)
Procedure, shortened: as §1

[17] = system: primary FL patient cells (S087)
Procedure, shortened: as §1

[18] = system: primary MCL patient cells (S053)
Procedure, shortened: as §1

[19] = system: primary MCL patient cells (S063)
Procedure, shortened: as §1

[20] = system: primary MCL patient cells (S068)
Procedure, shortened: as §1

With `CC(C)c1cc(C(=O)N2Cc3ccc(CN4CCN(C)CC4)cc3C2)c(O)cc1O` [Onalespib] the viability ([1]; 0.0032 µM) was 0.877, the viability ([1]; 0.016 µM) was 0.847 and the viability ([1]; 0.08 µM) was 0.477. For the same molecule, the viability ([1]; 0.4 µM) was 0.574, the viability ([1]; 2 µM) was 0.432 and the viability ([2]; 0.0032 µM) was 0.659. The viability ([2]; 0.016 µM) was 0.582, the viability ([2]; 0.08 µM) was 0.255 and the viability ([2]; 0.4 µM) was 0.273. It also gave a viability ([2]; 2 µM) of 0.253, a viability ([3]; 0.0032 µM) of 0.788 and a viability ([3]; 0.016 µM) of 0.312. The viability ([3]; 0.08 µM) was 0.124, the viability ([3]; 0.4 µM) was 0.213 and the viability ([3]; 2 µM) was 0.239. It also gave a viability ([4]; 0.0032 µM) of 0.712, a viability ([4]; 0.016 µM) of 0.916 and a viability ([4]; 0.08 µM) of 0.399. For the same molecule, the viability ([4]; 0.4 µM) was 0.684, the viability ([4]; 2 µM) was 0.66 and the viability ([5]; 0.0032 µM) was 0.973. The viability ([5]; 0.016 µM) was 1.02, the viability ([5]; 0.08 µM) was 0.657 and the viability ([5]; 0.4 µM) was 0.139. It also gave a viability ([5]; 2 µM) of 0.15, a viability ([6]; 0.0032 µM) of 0.93 and a viability ([6]; 0.016 µM) of 1.11. For the same molecule, the viability ([6]; 0.08 µM) was 0.675, the viability ([6]; 0.4 µM) was 0.33 and the viability ([6]; 2 µM) was 0.281. For the same molecule, the viability ([7]; 0.0032 µM) was 0.874, the viability ([7]; 0.016 µM) was 0.716 and the viability ([7]; 0.08 µM) was 0.466. It also gave a viability ([7]; 0.4 µM) of 0.523, a viability ([7]; 2 µM) of 0.58 and a viability ([8]; 0.0032 µM) of 0.743. For the same molecule, the viability ([8]; 0.016 µM) was 0.29, the viability ([8]; 0.08 µM) was 0.142 and the viability ([8]; 0.4 µM) was 0.164. It also gave a viability ([8]; 2 µM) of 0.174, a viability ([9]; 0.0032 µM) of 0.967 and a viability ([9]; 0.016 µM) of 1.15. It also gave a viability ([9]; 0.08 µM) of 0.61, a viability ([9]; 0.4 µM) of 0.169 and a viability ([9]; 2 µM) of 0.109. The viability ([10]; 0.0032 µM) was 1.05, the viability ([10]; 0.016 µM) was 1.08 and the viability ([10]; 0.08 µM) was 0.311. It also gave a viability ([10]; 0.4 µM) of 0.0842, a viability ([10]; 2 µM) of 0.0764 and a viability ([11]; 0.0032 µM) of 0.928. It also gave a viability ([11]; 0.016 µM) of 0.942, a viability ([11]; 0.08 µM) of 0.334 and a viability ([11]; 0.4 µM) of 0.233. For the same molecule, the viability ([11]; 2 µM) was 0.237, the viability ([12]; 0.0032 µM) was 0.875 and the viability ([12]; 0.016 µM) was 1.35. It also gave a viability ([12]; 0.08 µM) of 0.668, a viability ([12]; 0.4 µM) of 0.69 and a viability ([12]; 2 µM) of 0.629. For the same molecule, the viability ([13]; 0.0032 µM) was 1.56, the viability ([13]; 0.016 µM) was 1.32 and the viability ([13]; 0.08 µM) was 1.42. It also gave a viability ([13]; 0.4 µM) of 0.756, a viability ([13]; 2 µM) of 0.792 and a viability ([14]; 0.0032 µM) of 0.896. For the same molecule, the viability ([14]; 0.016 µM) was 0.929, the viability ([14]; 0.08 µM) was 0.432 and the viability ([14]; 0.4 µM) was 0.235. The viability ([14]; 2 µM) was 0.246, the viability ([15]; 0.0032 µM) was 0.987 and the viability ([15]; 0.016 µM) was 1.1. The viability ([15]; 0.08 µM) was 0.811, the viability ([15]; 0.4 µM) was 0.585 and the viability ([15]; 2 µM) was 0.395. The viability ([16]; 0.0032 µM) was 0.868, the viability ([16]; 0.016 µM) was 0.943 and the viability ([16]; 0.08 µM) was 0.705. The viability ([16]; 0.4 µM) was 0.781, the viability ([16]; 2 µM) was 0.757 and the viability ([17]; 0.0032 µM) was 0.962. For the same molecule, the viability ([17]; 0.016 µM) was 1.02, the viability ([17]; 0.08 µM) was 0.853 and the viability ([17]; 0.4 µM) was 0.84. For the same molecule, the viability ([17]; 2 µM) was 0.871, the viability ([18]; 0.0032 µM) was 0.837 and the viability ([18]; 0.016 µM) was 1.12. For the same molecule, the viability ([18]; 0.08 µM) was 0.356, the viability ([18]; 0.4 µM) was 0.345 and the viability ([18]; 2 µM) was 0.306. For the same molecule, the viability ([19]; 0.0032 µM) was 0.9, the viability ([19]; 0.016 µM) was 1.27 and the viability ([19]; 0.08 µM) was 0.447. For the same molecule, the viability ([19]; 0.4 µM) was 0.1, the viability ([19]; 2 µM) was 0.0867 and the viability ([20]; 0.0032 µM) was 1.04. The viability ([20]; 0.016 µM) was 1.44, the viability ([20]; 0.08 µM) was 0.814 and the viability ([20]; 0.4 µM) was 0.497. It also gave a viability ([20]; 2 µM) of 0.419.

`Oc1ccc(/C=C/c2cc(O)cc(O)c2)cc1` [Resveratrol] showed a viability ([1]; 0.024 µM) of 0.621, a viability ([1]; 0.12 µM) of 0.574 and a viability ([1]; 0.6 µM) of 0.479. For the same molecule, the viability ([1]; 3 µM) was 0.637, the viability ([1]; 15 µM) was 0.681 and the viability ([2]; 0.024 µM) was 0.427. For the same molecule, the viability ([2]; 0.12 µM) was 0.459, the viability ([2]; 0.6 µM) was 0.489 and the viability ([2]; 3 µM) was 0.477. For the same molecule, the viability ([2]; 15 µM) was 0.426, the viability ([3]; 0.024 µM) was 0.862 and the viability ([3]; 0.12 µM) was 0.866. For the same molecule, the viability ([3]; 0.6 µM) was 0.845, the viability ([3]; 3 µM) was 0.872 and the viability ([3]; 15 µM) was 0.804. The viability ([4]; 0.024 µM) was 0.808, the viability ([4]; 0.12 µM) was 0.789 and the viability ([4]; 0.6 µM) was 0.757. For the same molecule, the viability ([4]; 3 µM) was 0.747, the viability ([4]; 15 µM) was 0.682 and the viability ([5]; 0.024 µM) was 0.981. For the same molecule, the viability ([5]; 0.12 µM) was 1.02, the viability ([5]; 0.6 µM) was 0.972 and the viability ([5]; 3 µM) was 0.957. The viability ([5]; 15 µM) was 0.986, the viability ([6]; 0.024 µM) was 0.89 and the viability ([6]; 0.12 µM) was 0.933. For the same molecule, the viability ([6]; 0.6 µM) was 0.92, the viability ([6]; 3 µM) was 0.883 and the viability ([6]; 15 µM) was 0.902. The viability ([7]; 0.024 µM) was 0.84, the viability ([7]; 0.12 µM) was 0.845 and the viability ([7]; 0.6 µM) was 0.772. The viability ([7]; 3 µM) was 0.693, the viability ([7]; 15 µM) was 0.55 and the viability ([8]; 0.024 µM) was 0.714. The viability ([8]; 0.12 µM) was 0.966, the viability ([8]; 0.6 µM) was 0.645 and the viability ([8]; 3 µM) was 0.596. It also gave a viability ([8]; 15 µM) of 0.466, a viability ([9]; 0.024 µM) of 0.964 and a viability ([9]; 0.12 µM) of 0.99. It also gave a viability ([9]; 0.6 µM) of 0.946, a viability ([9]; 3 µM) of 0.918 and a viability ([9]; 15 µM) of 0.893. It also gave a viability ([10]; 0.024 µM) of 0.814, a viability ([10]; 0.12 µM) of 0.846 and a viability ([10]; 0.6 µM) of 0.806. For the same molecule, the viability ([10]; 3 µM) was 0.762, the viability ([10]; 15 µM) was 0.794 and the viability ([11]; 0.024 µM) was 0.783. It also gave a viability ([11]; 0.12 µM) of 0.735, a viability ([11]; 0.6 µM) of 0.819 and a viability ([11]; 3 µM) of 0.735. It also gave a viability ([11]; 15 µM) of 0.658, a viability ([12]; 0.024 µM) of 0.852 and a viability ([12]; 0.12 µM) of 0.85. It also gave a viability ([12]; 0.6 µM) of 0.864, a viability ([12]; 3 µM) of 0.907 and a viability ([12]; 15 µM) of 0.787. For the same molecule, the viability ([13]; 0.024 µM) was 0.942, the viability ([13]; 0.12 µM) was 0.954 and the viability ([13]; 0.6 µM) was 0.921. It also gave a viability ([13]; 3 µM) of 0.9, a viability ([13]; 15 µM) of 0.828 and a viability ([14]; 0.024 µM) of 0.761. The viability ([14]; 0.12 µM) was 0.766, the viability ([14]; 0.6 µM) was 0.744 and the viability ([14]; 3 µM) was 0.67. It also gave a viability ([14]; 15 µM) of 0.553, a viability ([15]; 0.024 µM) of 0.825 and a viability ([15]; 0.12 µM) of 0.864. The viability ([15]; 0.6 µM) was 0.821, the viability ([15]; 3 µM) was 0.799 and the viability ([15]; 15 µM) was 0.711. For the same molecule, the viability ([16]; 0.024 µM) was 0.832, the viability ([16]; 0.12 µM) was 0.823 and the viability ([16]; 0.6 µM) was 0.784. The viability ([16]; 3 µM) was 0.847, the viability ([16]; 15 µM) was 0.811 and the viability ([17]; 0.024 µM) was 0.804. It also gave a viability ([17]; 0.12 µM) of 0.857, a viability ([17]; 0.6 µM) of 0.803 and a viability ([17]; 3 µM) of 0.877. The viability ([17]; 15 µM) was 0.815, the viability ([18]; 0.024 µM) was 0.75 and the viability ([18]; 0.12 µM) was 0.671. The viability ([18]; 0.6 µM) was 0.595, the viability ([18]; 3 µM) was 0.686 and the viability ([18]; 15 µM) was 0.772. For the same molecule, the viability ([19]; 0.024 µM) was 0.862, the viability ([19]; 0.12 µM) was 0.858 and the viability ([19]; 0.6 µM) was 0.863. For the same molecule, the viability ([19]; 3 µM) was 0.854, the viability ([19]; 15 µM) was 0.825 and the viability ([20]; 0.024 µM) was 0.614. For the same molecule, the viability ([20]; 0.12 µM) was 0.63, the viability ([20]; 0.6 µM) was 0.639 and the viability ([20]; 3 µM) was 0.7. The viability ([20]; 15 µM) was 1.16.
